# Patent US11730705B2, “Small molecule CMKLR1 antagonists in inflammatory disease” (The Board of Trustees of the Leland Stanford Junior …, priority 2019, dated 2023)
# Where “and” joins values, the source holds several entries; their conditions need not be identical. Equal values may be shown once. Read-outs that look alike come from different tables or passages of the source.
# Experiments:
# [1] = target: T1, CMKLR1 (Homo sapiens, UniProt Q99788); experiment: β-arrestin recruitment assay (chemerin-mediated β-arrestin2 association with CMKLR1); format: cell-based
# T1 construct: host or cells: CHO-K1 (PathHunter)
# T1 sequence (Q99788 1-373): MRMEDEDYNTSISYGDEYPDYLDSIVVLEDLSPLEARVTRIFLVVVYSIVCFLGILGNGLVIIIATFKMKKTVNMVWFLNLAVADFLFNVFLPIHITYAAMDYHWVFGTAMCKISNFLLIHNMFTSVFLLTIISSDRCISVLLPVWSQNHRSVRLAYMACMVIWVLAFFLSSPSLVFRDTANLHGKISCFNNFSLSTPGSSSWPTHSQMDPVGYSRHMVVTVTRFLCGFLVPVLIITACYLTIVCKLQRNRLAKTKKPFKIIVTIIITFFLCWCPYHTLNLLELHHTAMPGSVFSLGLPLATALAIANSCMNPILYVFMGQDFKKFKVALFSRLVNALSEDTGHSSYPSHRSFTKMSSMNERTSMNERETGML
# Protocol: (§1) FIG. 15A-15D. […] IC50 values were determined based on 6-point dose-response curves for each compound. (FIG. 15A) α-NETA. […] (FIG. 15A-15C) mean±SEM, n=3-18 independent experiments. […] 0.2 ml each compound (in 10% captisol) or vehicle control was administered by oral gavage beginning one day prior to psoriasis induction. Back skin thickness was measured daily and normalized to day 0. mean±SEM, n=10 mice for vehicle and α-NETA groups pooled from two independent trials; n=3 mice for (27) and (6) from one trial.
# Cell culture. […] DiscoverX PathHunter® CHO-K1 CMKLR1 β-Arrestin Cells were grown in RPMI lacking phenol red (Gibco, Life Technologies), supplemented with L-glutamine, penicillin-streptomycin, sodium pyruvate, non-essential amino acid, BCS, hygromycin, and G418-sulfate.
# β-arrestin recruitment assay. CMKLR1-CHO-β-Arrestin cells were seeded in 96 well plates at 1×10^5 cell/ml-100 ul/well and incubated overnight at 37° C., 5% CO2. The next day, media was removed and cells were pre-incubated in PBS with α-NETA or test compound (95 ul/well) in a 6 point dose response curve from 100 μM to 0.3 μM for 10 min at RT. (α-NETA and test compounds were reconstituted in DMSO; final DMSO concentration in each well was 0.1%). After 10 min, 5 ul of recombinant human chemerin (R&D Systems) at a final concentration of 20 nM was added to each well. Plates were incubated for 90 min at 37° C., 5% CO2. Media was then removed and 50 ul of chemiluminescent substrate (Tropix Gal-Screen, Applied Biosciences) was added. The plate was incubated for 1 hr at RT and luminescence was detected using the SpectraMax M5 plate reader (Molecular Devices). For each independent trial (single replicate dose curves), data was normalized to the maximum signal per compound tested and an IC50 value was generated using GraphPad Prism software. The average IC50 value for n independent trials (as specified in the table) is reported.
# [2] = target: T2, (hu)CMKLR1 L1.2 cells (Homo sapiens, UniProt Q99788); experiment: Chemotaxis assay (chemerin-dependent CMKLR1+ cell migration); format: cell-based; conditions: Table 3; migration toward huChemerin, 2 h transwell; read-out: Chemotaxis IC50 μM mean ± SEM (n)
# T2 construct: expressed in transfected cells; host or cells: L1.2 pre-B cell lymphoma cells
# T2 sequence (Q99788 1-373): T1 sequence (Q99788 1-373)
# Protocol: Cell culture. (hu)CMKLR1 transfectants (generated in L1.2 pre-B cell lymphoma cells) were grown in RPMI 1640 (Corning) supplemented with L-glutamine, penicillin-streptomycin, and 10% BCS and G418-sulfate (KSE Scientific). DiscoverX PathHunter® CHO-K1 CMKLR1 β-Arrestin Cells were grown in RPMI lacking phenol red (Gibco, Life Technologies), supplemented with L-glutamine, penicillin-streptomycin, sodium pyruvate, non-essential amino acid, BCS, hygromycin, and G418-sulfate.
# Chemotaxis assay. (hu)CMKLR1 L1.2 cells at 1×10^6 cell/ml were treated with 5 mM sodium butyrate (Sigma) overnight to induce hCMKLR1 expression. The next day, cells were washed in migration media (RPMI+0.5% BSA) and resuspended at 1.5-3×10^6 cell/ml. Cells were pre-incubated at RT for 10 min with various concentrations of α-NETA or test compounds (α-NETA and test compounds were reconstituted in DMSO; final DMSO concentration in each well was 0.1%). 100 ul of cells were added to the upper chamber of a 24-well transwell plate (5 um pore size, Costar). Cells were allowed to migrate toward huChemerin ([…] in migration media, bottom chamber) for 2 h, 37° C., 5% CO2. The number of migrated cells was quantified by flow cytometry (BD LSR2), and live cells were distinguished based on FSC×SSC properties. The background for this assay was typically low with 0 cells migrating to the buffer alone. For each independent trial, data was normalized to the maximum migration per compound tested and an IC50 value was generated using GraphPad Prism software. The average IC50 value for n independent trials (as specified in the table) is reported.
# [3] = system: IMQ-induced psoriasis in mice; experiment: IMQ-induced psoriasis model; format: in vivo, mouse
# Protocol: FIG. 11A-11G. […] Representative images of the same mouse shown over time. […] Mice were treated twice daily with IMQ±dexamethasone (DEX, 200 ug/mouse) 1 h prior to IMQ treatment. […] (FIG. 11G) NK cell (CD45+DX5+CD11b-CD3-CD19-) infiltration into lesional or non-lesional adjacent skin was determined by flow cytometry (6 day timepoint) for IMQ-treated WT and chemerin KO mice. mean±SEM, n=4 mice per genotype, ***p<0.005 by 2-tailed t-test; **p<0.01 by 2-tailed t-test; *p<0.05 by 1-tailed t-test.
# FIG. 13A-13D. […] Fold change with respect to day 0 measurements are shown. […] For A-C, n=3 untreated, n=5 IMQ-treated mice of each genotype, mean±SEM, *p<0.05 by 2-tailed t-test.
# as §1
# [4] = target: Cyp1A2 (Homo sapiens, UniProt P05177); conditions: PubChem BioAssay ID 1476; read-out: Cyp Inhibition IC50 (μM), Cyp1A2; cited from earlier work
# Sequence of Cyp1A2 (P05177 whole entry): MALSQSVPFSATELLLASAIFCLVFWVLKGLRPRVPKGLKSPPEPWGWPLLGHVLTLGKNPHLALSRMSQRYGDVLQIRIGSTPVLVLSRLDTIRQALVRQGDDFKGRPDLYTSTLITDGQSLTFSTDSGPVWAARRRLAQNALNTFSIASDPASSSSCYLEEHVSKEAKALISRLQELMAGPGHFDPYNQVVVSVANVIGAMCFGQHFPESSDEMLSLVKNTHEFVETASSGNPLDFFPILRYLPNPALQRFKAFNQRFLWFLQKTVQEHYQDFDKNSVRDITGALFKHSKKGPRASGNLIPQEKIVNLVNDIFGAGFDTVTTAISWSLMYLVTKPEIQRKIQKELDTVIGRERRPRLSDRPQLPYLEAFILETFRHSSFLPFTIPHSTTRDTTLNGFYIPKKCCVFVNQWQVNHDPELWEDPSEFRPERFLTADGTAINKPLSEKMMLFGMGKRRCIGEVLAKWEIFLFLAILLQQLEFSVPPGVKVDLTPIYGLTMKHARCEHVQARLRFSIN
# [5] = system: Salmonella typhimurium (TA100); experiment: Ames test for genotoxicity; conditions: concentrations up to at least 10 uM
# [6] = target: Cyp3A4 (Homo sapiens, UniProt P08684); experiment: Cyp enzyme inhibition, human liver microsomes; format: in vitro ADME; parameters: Human liver microsomes were pre-incubated with 7 concentrations; tissue Cyprotex/Evotec AG; host or cells: human liver microsomes
# Sequence of Cyp3A4 (P08684 whole entry): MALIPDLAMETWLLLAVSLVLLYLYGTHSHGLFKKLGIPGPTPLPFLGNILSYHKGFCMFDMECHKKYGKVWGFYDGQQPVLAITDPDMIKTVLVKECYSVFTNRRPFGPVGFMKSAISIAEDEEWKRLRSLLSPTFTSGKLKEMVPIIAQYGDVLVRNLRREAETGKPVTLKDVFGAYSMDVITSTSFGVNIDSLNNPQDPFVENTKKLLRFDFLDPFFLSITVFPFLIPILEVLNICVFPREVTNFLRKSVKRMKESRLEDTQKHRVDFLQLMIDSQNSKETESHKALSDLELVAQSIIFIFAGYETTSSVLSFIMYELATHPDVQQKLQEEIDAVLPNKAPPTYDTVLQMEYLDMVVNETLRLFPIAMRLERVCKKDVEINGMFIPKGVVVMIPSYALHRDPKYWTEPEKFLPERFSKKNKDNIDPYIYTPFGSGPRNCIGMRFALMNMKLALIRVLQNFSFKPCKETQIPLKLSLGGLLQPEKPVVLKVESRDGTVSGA
# Protocol: Cyp enzyme inhibition. Human liver microsomes were pre-incubated with 7 concentrations ([…], duplicate wells) of α-NETA for 30 min.
structure (smiles),measurement,setting,value
"C[N+](C)(C)CCC(=O)c1cccc2ccccc12.[I-] [α-NETA, 2-(α-naphthoyl) ethyltrimethylammonium iodide]",IC50,"[1]; Table 2, tertiary amines, chemerin 20 nM, CHO transfectants, read-out: β-arrestin IC50 μM mean ± SEM (n)",4.9 ± 1.5 µM
same,IC50,"[1]; initial studies, 4-5 years earlier, different source of α-NETA, read-out: β-arrestin2 inhibition IC50",0.38 µM
same,IC50,"[1]; values given in running text b220, read-out: β-arrestin2 assay IC50",2.3 µM
same,IC50,[2],37 ± 8.9 µM
same,back skin thickening,"[3]; 10 mg/kg s.c., 24 h timepoint",significantly suppressed
same,back skin acanthosis,"[3]; 30 mg/kg p.o. daily, 7 days, vs vehicle control",significantly diminished
same,clinical features of experimental psoriasis,"[3]; oral gavage in 10% captisol, FIG. 15D",suppressed
same,IC50,[4],8 µM
same,mutagenesis (reversion of an obligate histidine mutation),[5],did not induce mutagenesis
same,IC50,"[6]; human liver microsomes, substrate Midazolam, read-out: Cyp Inhibition IC50 (μM), Cyp3A4",7.4 µM and 7.5 µM
same,IC50,"[6]; substrate testosterone, read-out: Cyp3A4 IC50",6.9 µM
